# Results published in patent US9028845B2, “Chimeric immunomodulatory compounds and methods of using the same-IV” (Dynavax Technologies Corporation, priority 2001, dated 2015).
# Tested on: human PBMCs
# Test: Human PBMC cytokine response assay (IFN-γ and IFN-α in cell-free medium by ELISA), with or without cPLGA;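 for IFN-α (pg/ml) mean: 20 µg/mL compound for 24 hours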;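 for IFN-γ (pg/ml) mean: 20 µg/mL compound for 24 hours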
# Format: cell-based
# Conditions: for IFN-a / IFN-g / IFN-a (pg/ml) mean / IFN-g (pg/ml) mean / IFN-a (pg/ml) ×2 / IFN-g (pg/ml) ×4: Table 15; for IFN-a (pg/ml) mean / IFN-g (pg/ml) mean: mean of donors 28185-28188; for IFN-a (pg/ml) ×2: mean ×2; for IFN-g (pg/ml) ×4: mean ×4; for IFN-α / IFN-γ / IFN-α mean / IFN-γ mean: Table 24; for IFN-α mean / IFN-γ mean: mean of donors 28234-28237; for IFN-α induction, in words: used alone
# [1] = donor 28066, 20 ug/ml, 24 h, + PLGA = premixed with 100 μg/ml cPLGA
# [2] = donor 28067, 20 ug/ml, 24 h, + PLGA = premixed with 100 μg/ml cPLGA
# [3] = donor 28068, 20 ug/ml, 24 h, + PLGA = premixed with 100 μg/ml cPLGA
# [4] = mean of donors 28065-28068, 20 ug/ml, 24 h, + PLGA = premixed with 100 μg/ml cPLGA
Substance,IFN-a (donor 28185) [pg/mL],IFN-g (donor 28185) [pg/mL],IFN-a (donor 28186) [pg/mL],IFN-g (donor 28186) [pg/mL],IFN-a (donor 28187) [pg/mL],IFN-g (donor 28187) [pg/mL],IFN-a (donor 28188) [pg/mL],IFN-g (donor 28188) [pg/mL],IFN-a (pg/ml) mean [pg/mL],IFN-g (pg/ml) mean [pg/mL],IFN-a (pg/ml) ×2 [pg/mL],IFN-g (pg/ml) ×4 [pg/mL],IFN-α (donor 28234) [pg/mL],IFN-γ (donor 28234) [pg/mL],IFN-α (donor 28235) [pg/mL],IFN-γ (donor 28235) [pg/mL],IFN-α (donor 28236) [pg/mL],IFN-γ (donor 28236) [pg/mL],IFN-α (donor 28237) [pg/mL],IFN-γ (donor 28237) [pg/mL],other results
(5′-TCGTCGA-3′)2-glycerol-5′-AACGTTC-3′ [Compound C-27],4,49,4,3,39,21,4,3,13,19,25,75,–,–,–,–,–,–,–,–,"IFN-γ (pg/ml) 28065 (donor 28065 (high background), 20 ug/ml, 24 h, + PLGA = premixed with 100 μg/ml cPLGA, 1000 = outside assay limits): 475 pg/mL; IFN-α (pg/ml) 28065 (donor 28065, 20 ug/ml, 24 h, + PLGA = premixed with 100 μg/ml cPLGA): 3 pg/mL; IFN-α (pg/ml) 28066 [1]: 0 pg/mL; IFN-γ (pg/ml) 28066 [1]: 3 pg/mL; IFN-α (pg/ml) 28067 [2]: 24 pg/mL; IFN-γ (pg/ml) 28067 [2]: 24 pg/mL; IFN-α (pg/ml) 28068 [3]: 16 pg/mL; IFN-γ (pg/ml) 28068 [3]: 226 pg/mL; IFN-α (pg/ml) mean [4]: 11 pg/mL; IFN-γ (pg/ml) mean [4]: 182 pg/mL"
(5′-TCGTCGA-3′-HEG)2-glycerol-HEG-5′-AACGTTC-3′ [Compound C-96],2550,163,446,22,118,195,40,12,788,98,1577,392,16,21,120,239,608,354,993,1396,"IFN-α mean: 434 pg/mL; IFN-γ mean: 503 pg/mL; IFN-α induction, in words: induced more IFN-α relative to linear CICs with HEG spacers"
(5′-TCGTCGA-3′-HEG)2-glycerol-HEG-5′-AACGTTC-3′-HEG-5′-TCGA-3′ [Compound C-97],307,259,71,16,4,125,2,5,96,101,192,405,16,10,16,119,140,269,16,980,"IFN-α mean: 47 pg/mL; IFN-γ mean: 345 pg/mL; IFN-α induction, in words: reduction of IFN-α induction"
(5′-TCGTCGA-3′-HEG)2-glycerol-HEG-5′-AACGTTC-3′-HEG-5′-TCGACGT-3′ [Compound C-100],–,–,–,–,–,–,–,–,–,–,–,–,16,27,16,183,398,490,193,1907,IFN-α mean: 156 pg/mL; IFN-γ mean: 652 pg/mL
